# “Also recorded” adds a separate entry of the source.
# What was measured:
# [1] = test system: ERG target genes in VCaP cells; test: qPCR analysis of ERG-target genes in VCaP cells; type: cell-based, human; conditions: siRNA or drug for 48 hours
# Protocol: Total RNA was isolated from VCAP, RWPE or PrEC cells that were transfected with siRNA as indicated (Qiagen). Quantitative PCR (QPCR) was performed using SYBR Green dye on an Applied Biosystems 7300 Real Time PCR system (Applied Biosystems, Foster City, Calif.) as described (Tomlins, S. A., et al. Science (New York, N.Y. 310, 644-648 (2005)). Briefly, 1 μg of total RNA was reverse transcribed into cDNA using SuperScript 111 (Invitrogen, Carlsbad, Calif.) in the presence of random primers (Invitrogen). All reactions were performed in triplicate with SYBR Green Master Mix (Applied Biosystems) plus 25 ng of both the forward and reverse primer according to the manufacturer's recommended thermocycling conditions, and then subjected to melt curve analysis. […] The relative quantity of the target gene was completed for each sample using the ΔΔCt method by the comparing mean Ct of the gene to the average Ct of the housekeeping gene, β-Actin8. […] The primer sequences for the transcript analyzed were either previously described (Tomlins et al., 2008, supra) or are provided in Table 4.
# Total RNA was isolated from VCAP, RWPE or PrEC cells that were transfected with siRNA as indicated (Qiagen). […] The relative quantity of the target gene was completed for each sample using the ΔΔCt method by the comparing mean Ct of the gene to the average Ct of the housekeeping gene, β-Actin8. […]
# [2] = test system: RWPE cells transduced with ERG adenovirus; test: Basement membrane matrix invasion assay, RWPE cells transduced with ERG adenovirus; type: cell-based, human; conditions: P<0.01 for DNA-PKcs siRNA or NU7026>10 μM, P<0.05 for all PARP1 siRNA, NU1025 or Olaparib treatments
# Protocol: (§1) For invasion assays, the prostate cell lines RWPE-1 and VCaP were transfected with siRNA or negative controls as indicated. NU7026 (Sigma) and NU1025 (Calbiochem) were dissolved in DMSO and stored at −20° C. in the dark. Forty-eight hours post-transfection/transduction, cells were seeded onto the basement membrane matrix (EC matrix, Chemicon, Temecula, Calif.) in the chamber insert with […] pores of a 24-well culture plate in serum free media. Cells were attracted to the lower chamber by the addition of complete media as a chemoattractant. After 48 hours incubation at 37° C. with 5% CO2, the non-invading cells and EC matrix were gently removed with a cotton swab. Invasive cells, which were located on the lower side of the membrane, were stained with crystal violet, air dried and photographed. To quantify the relative number of invaded cells, colorimetric assays were performed by treating the inserts with 150 μl of 10% acetic acid (v/v) and measuring absorbance of each condition at 560 nm using a spectrophotometer (GE Healthcare).
# [3] = test system: VCaP cells; test: Basement membrane matrix invasion assay, VCaP cells; type: cell-based, human; conditions: P<0.01 for DNA-PKcs siRNA or NU7026>10 μM; P<0.05 for all PARP1 siRNA, NU1025 or Olaparib treatments
# Protocol: as §1
# [4] = Total cell number after 72 hours (data not shown); type: cell-based
# [5] = test system: VCaP xenografts; test: VCaP mouse xenograft model; type: in vivo, mice; conditions: VCaP; Olaparib 40 mg/kg/day IP (P=0.001); NU7026 25 mg/kg/day IP (p=0.004)
# Source text: (§2) Olaparib was obtained from Axon Medchem (Groningen, The Netherlands).
# [6] = test system: PC3 xenografts; test: PC3 (PC3-control) mouse xenograft model; type: in vivo, mice; conditions: PC3 / PC3-control (ETS negative); Olaparib 40 mg/kg IP, NU7026 25 mg/kg IP
# Source text: as §2
# [7] = test system: PC3-LACZ xenografts; test: PC3-LACZ mouse xenograft model; type: in vivo, mice; conditions: PC3-LACZ (ETS negative)
# Source text: as §2
# [8] = test system: ERG-target gene expression; test: qPCR of ERG-target genes in staged PC3-ERG tumors; type: in vivo, mice; conditions: 4 hours, 40 mg/kg Olaparib or 25 mg/kg NU7026
# [9] = test system: PC3-ERG xenografts; conditions: mouse, in vivo
# Protocol: Four weeks old male Balb C nu/nu mice were purchased from Charles River, Inc. (Charles River Laboratory, Wilmington, Mass.). VCaP (2×10^6 cells), PC3-luciferase-control (1×10^5 cells) or PC3-luciferase-ERG (1×10^5 cells) stable cells were resuspended in 100 μl of saline with 50% Matrigel (BD Biosciences, Becton Drive, NJ) and were implanted subcutaneously into the left flank region of the mice. Mice were anesthetized using a cocktail of xylazine (80-120 mg/kg, IP) and ketamine (10 mg/kg, IP) for chemical restraint before tumor implantation. All tumors were staged for three week before starting the drug treatment. After week 3 for VCaP cells or after 48 hours for PC3 cells, mice (10 per treatment group) were treated with NU7026 (25 mg/kg, IP), Olaparib (40 mg/kg, IP) daily five times a week. Olaparib was obtained from Axon Medchem (Groningen, The Netherlands). Growth in tumor volume was recorded weekly by using digital calipers and tumor volumes were calculated using the formula (π/6) (L×W2), where L=length of tumor and W=width. Loss of body weight during the course of the study was also monitored weekly.
# [10] = test system: VCaP and PC3 xenograft tumors; test: Ki67 and CD31 immunohistochemistry on tissue microarray of VCaP and PC3 xenograft tumors; conditions: pairwise t-test
# Protocol: Changes in both relative cell proliferation of the tumors (Ki67) and microvessel density (CD31) were assessed using a tissue microarray made from formalin-fixed, paraffin-embedded tumors from all xenograft tumors analyzed in the VCaP and PC3 studies.
smiles,measurement,setting,value
O=c1cc(N2CCOCC2)oc2c1ccc1ccccc12 [NU7026],expression of the ERG target genes (qPCR),[1],confirmed gene expression changes as predicted by the gene expression arrays; also recorded: altered expression of the ERG target genes
same,ERG-driven cell invasion,[2],attenuated invasion
same,VCaP cell invasion,[3],attenuated invasion
same,total cell number,[4],did not alter total cell number
same,tumor growth relative to the vehicle control,[5],significant reduction of tumor growth
same,xenograft growth,[6],did not block the growth; also recorded: did not significantly inhibit xenograft growth
same,xenograft growth,[7],did not significantly inhibit xenograft growth
same,ERG-target gene expression in tumors (qPCR),[8],loss of ERG-target gene expression
same,xenograft growth,[9],unable to reduce the xenograft growth rate
same,average number of Ki67 positive cells,[10],Neither NU7026 nor Olaparib consistently led to a significant change
same,microvessel density (CD31),[10],Neither NU7026 nor Olaparib consistently led to a significant change

# — US20120035244A1, “PARP1 TARGETED THERAPY” (THE REGENTS OF THE UNIVERSITY OF MICHIGAN, priority 2010, published 2012)
